Measurements reported in ChEMBL document CHEMBL1201862, “PubChem BioAssay data set” (2004).
Calls of active or inactive are those of the source.

Key:
[1] = molecular target: T1, CAAX prenyl protease 2 (Saccharomyces cerevisiae S288c, UniProt Q03530); type: biochemical
T1 sequence (Q03530 whole entry): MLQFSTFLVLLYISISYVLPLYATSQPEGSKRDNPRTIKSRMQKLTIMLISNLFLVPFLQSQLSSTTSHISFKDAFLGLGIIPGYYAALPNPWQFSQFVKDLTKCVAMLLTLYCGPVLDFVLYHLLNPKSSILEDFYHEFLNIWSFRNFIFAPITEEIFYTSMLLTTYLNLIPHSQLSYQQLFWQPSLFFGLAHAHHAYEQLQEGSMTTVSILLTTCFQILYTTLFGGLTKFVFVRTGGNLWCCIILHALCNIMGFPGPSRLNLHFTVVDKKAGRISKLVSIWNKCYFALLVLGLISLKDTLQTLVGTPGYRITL

[2] = molecular target: Induced myeloid leukemia cell differentiation protein Mcl-1 (Homo sapiens, UniProt Q07820); test: Mcl-1 Noxa peptide disruption concentration-response – biochemical, TR-FRET, dose response (AID 1417); type: functional
[3] = molecular target: T2, Rac GTPase-activating protein 1 (Homo sapiens, UniProt Q9H0H5); test: blockers of MgcRacGAP-driven Rac1 GTP hydrolysis – biochemical, ADP Hunter fluorescence, primary and confirmatory, confirmation (AID 624330); type: functional
T2 sequence (Q9H0H5 whole entry): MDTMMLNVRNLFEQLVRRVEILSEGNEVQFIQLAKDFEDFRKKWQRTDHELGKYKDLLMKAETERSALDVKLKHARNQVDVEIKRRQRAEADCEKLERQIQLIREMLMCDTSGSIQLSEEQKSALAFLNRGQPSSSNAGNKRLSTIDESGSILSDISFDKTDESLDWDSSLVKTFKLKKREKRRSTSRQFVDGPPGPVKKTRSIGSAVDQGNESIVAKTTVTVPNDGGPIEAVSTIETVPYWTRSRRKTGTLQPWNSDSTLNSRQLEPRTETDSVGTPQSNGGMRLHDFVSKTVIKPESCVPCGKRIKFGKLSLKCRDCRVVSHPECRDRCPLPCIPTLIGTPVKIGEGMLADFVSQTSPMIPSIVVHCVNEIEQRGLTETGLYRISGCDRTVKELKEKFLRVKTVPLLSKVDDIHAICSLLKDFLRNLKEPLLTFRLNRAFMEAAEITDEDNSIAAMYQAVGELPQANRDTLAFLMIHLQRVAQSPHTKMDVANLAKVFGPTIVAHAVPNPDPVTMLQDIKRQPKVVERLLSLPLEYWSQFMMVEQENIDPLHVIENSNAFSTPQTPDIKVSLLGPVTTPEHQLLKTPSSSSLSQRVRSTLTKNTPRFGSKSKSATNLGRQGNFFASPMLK

[4] = molecular target: FAD-linked sulfhydryl oxidase ALR (Homo sapiens, UniProt P55789); test: ALR-catalysed DTT oxidation blockers – biochemical, H2O2 detection, luminescence, cherry-pick, dose response (AID 493248)
[5] = molecular target: T3, Protein RecA (Mycobacterium tuberculosis, UniProt P9WHJ3); test: Fluorescence Cell-Free Homogeneous Dose Retest to Identify Inhibitors of RecA-Intein Splicing Activity. [Related pubchem assays (depositor defined):AID2097, AID2223, AID489010, AID492950]; type: functional
T3 sequence (P9WHJ3 whole entry): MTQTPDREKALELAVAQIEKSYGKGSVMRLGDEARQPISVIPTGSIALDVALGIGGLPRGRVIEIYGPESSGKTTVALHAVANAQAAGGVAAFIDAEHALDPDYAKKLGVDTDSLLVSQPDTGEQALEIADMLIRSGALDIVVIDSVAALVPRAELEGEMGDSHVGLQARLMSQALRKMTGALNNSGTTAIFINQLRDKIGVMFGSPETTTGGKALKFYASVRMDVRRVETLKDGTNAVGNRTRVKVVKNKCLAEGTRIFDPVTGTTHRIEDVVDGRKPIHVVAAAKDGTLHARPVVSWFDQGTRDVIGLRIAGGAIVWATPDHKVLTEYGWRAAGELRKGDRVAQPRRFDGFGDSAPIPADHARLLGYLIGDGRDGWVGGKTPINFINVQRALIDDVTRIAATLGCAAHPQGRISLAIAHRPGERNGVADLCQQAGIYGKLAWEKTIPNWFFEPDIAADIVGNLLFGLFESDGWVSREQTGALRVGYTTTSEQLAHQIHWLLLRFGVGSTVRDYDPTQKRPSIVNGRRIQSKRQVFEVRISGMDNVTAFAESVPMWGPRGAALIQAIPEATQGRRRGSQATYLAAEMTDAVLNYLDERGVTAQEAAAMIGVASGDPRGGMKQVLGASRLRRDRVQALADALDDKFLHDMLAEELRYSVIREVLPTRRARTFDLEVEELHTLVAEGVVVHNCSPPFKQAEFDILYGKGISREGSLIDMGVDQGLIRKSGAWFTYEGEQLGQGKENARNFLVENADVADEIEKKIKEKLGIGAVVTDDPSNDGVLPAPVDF

[6] = tested on: BJ; test: cells; type: functional, cell-based; conditions: Homo sapiens
[7] = tested on: BJ; test: BJ-TERT-LT-ST fibroblast viability loss – cell-based, RAS-independent, luminescence, dose response (AID 1935); type: functional; conditions: Homo sapiens;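 further: BJ fibroblasts immortalized with TERT plus LT and ST oncogenes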
[8] = tested on: BJ; test: BJ-TERT fibroblast viability loss – cell-based, RAS-independent, luminescence, dose response (AID 1933); type: functional; conditions: Homo sapiens
[9] = molecular target: T4, Replicative DNA helicase DnaB (Mycobacterium tuberculosis, UniProt P9WMR3); test: DnaB intein splicing inhibitors, dose response, biochemical, cell-free fluorescence (AID 449749); type: functional
T4 sequence (P9WMR3 whole entry): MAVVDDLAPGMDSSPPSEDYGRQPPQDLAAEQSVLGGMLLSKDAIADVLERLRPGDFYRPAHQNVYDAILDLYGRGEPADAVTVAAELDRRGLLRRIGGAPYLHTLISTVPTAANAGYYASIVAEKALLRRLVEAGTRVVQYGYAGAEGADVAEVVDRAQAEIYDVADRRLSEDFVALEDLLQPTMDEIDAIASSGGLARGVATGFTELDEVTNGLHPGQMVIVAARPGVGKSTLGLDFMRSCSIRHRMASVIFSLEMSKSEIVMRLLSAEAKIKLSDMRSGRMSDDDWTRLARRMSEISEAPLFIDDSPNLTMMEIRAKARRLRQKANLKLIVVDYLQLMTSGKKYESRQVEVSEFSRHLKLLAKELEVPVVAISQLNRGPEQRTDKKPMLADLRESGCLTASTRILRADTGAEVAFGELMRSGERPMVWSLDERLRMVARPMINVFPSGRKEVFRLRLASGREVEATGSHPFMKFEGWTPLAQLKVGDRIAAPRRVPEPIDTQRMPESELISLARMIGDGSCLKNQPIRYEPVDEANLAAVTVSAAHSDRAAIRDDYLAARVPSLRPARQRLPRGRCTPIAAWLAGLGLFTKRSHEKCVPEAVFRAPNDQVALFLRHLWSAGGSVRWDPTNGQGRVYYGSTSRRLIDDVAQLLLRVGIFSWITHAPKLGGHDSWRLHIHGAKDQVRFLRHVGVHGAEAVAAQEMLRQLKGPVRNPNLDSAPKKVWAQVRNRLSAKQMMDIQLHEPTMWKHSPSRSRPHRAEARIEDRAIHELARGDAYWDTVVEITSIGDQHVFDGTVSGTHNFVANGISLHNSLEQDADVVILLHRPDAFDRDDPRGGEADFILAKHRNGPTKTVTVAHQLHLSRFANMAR

[10] = DRD fibroblast viability loss – cell-based, non-viral oncogenic, luminescence, dose response (AID 1934); type: functional; conditions: Homo sapiens

Chain of Induced myeloid leukemia cell differentiation protein Mcl-1 (Q07820 whole entry): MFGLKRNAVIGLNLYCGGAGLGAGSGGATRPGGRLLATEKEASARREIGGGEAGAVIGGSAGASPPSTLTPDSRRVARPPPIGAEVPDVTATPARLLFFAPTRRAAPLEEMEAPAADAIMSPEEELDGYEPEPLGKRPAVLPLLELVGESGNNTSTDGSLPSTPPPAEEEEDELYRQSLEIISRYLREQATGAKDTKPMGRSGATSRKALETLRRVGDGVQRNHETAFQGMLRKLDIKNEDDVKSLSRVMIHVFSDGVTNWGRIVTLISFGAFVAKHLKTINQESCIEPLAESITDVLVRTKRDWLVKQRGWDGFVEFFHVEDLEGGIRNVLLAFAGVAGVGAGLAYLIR
Chain of FAD-linked sulfhydryl oxidase ALR (P55789 whole entry): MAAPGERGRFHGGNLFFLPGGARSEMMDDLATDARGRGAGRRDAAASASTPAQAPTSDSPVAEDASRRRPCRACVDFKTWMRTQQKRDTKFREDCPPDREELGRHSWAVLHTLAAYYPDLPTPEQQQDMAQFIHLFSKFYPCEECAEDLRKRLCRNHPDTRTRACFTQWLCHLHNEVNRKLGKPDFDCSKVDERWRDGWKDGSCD

Cc1cccc(NC(=O)C2(c3ccc([N+](=O)[O-])cc3)CCCC2)c1
AC50 [1]: 14 µM (active)

Cc1ccc(S(=O)(=O)Nc2ccc(N(C)C)cc2)cc1
IC50 [2]: 10.7 µM (not active) | IC50 [3]: 33.1 µM (active) | AC50 [4]: 4.46 µM (active)

O=C(CCl)Nc1c(C(=O)Nc2ccc3c(c2)OCCO3)oc2ccccc12
EC50 [5]: 1.06 µM (active) | EC50 [6]: 29.4 µM (active) | EC50 [7]: > 150 µM (inconclusive) | EC50 [8]: 3.66 µM (active) | AC50 [9]: 7.89 µM (active) | EC50 [10]: 19 µM (active)
